Results as given in patent US20220089602A1, “COMPOUNDS THAT INDUCE FERROPTIC CELL DEATH” (The Board of Trustees of the University of Illinois, priority 2019, published 2022).

What was measured:
Assay type in all cases: cell-based
[1] = system: non-cancerous breast (MCF10A) cells; experiment: Cell viability IC50 in non-cancerous cells; details: Homo sapiens, MCF-10A
Method: (§1) To a 384-well plate, 40 μL of 1.25× compound dilution or 1.25% DMSO-containing media was added (final volume of 1% DMSO). Concentrations of compounds tested were 100 μM to 100 nM. On each plate at least 3 technical replicates per compound were performed. Next, 10 μL of a 100,000 cells/mL suspension was added to each well, yielding a final concentration of 1,000 cells/well. To three wells in column 2 was added 1 μL of 10 mM doxorubicin (final concentration of 200 μM) as positive control of cell death. Plates were sealed with gas-permeable seals and incubated at 37° C. for 72 h. At that time, 5 μL of Alamar blue (440 μM resazurin in sterile PBS) was added and plates were incubated for 3-4 hours. Fluorescence was read on a Molecular Devices SpectraMax 3 (excitation=555 nm, emission=585 nm, emission cutoff=570 nm). Wells were normalized to the average of untreated wells (0% cell death). The data were plotted as compound concentration versus percent dead cells and fitted to a logistic-dose response curve using OriginPro 2015 (OriginLab, Northampton, Mass.). The data were generated in triplicate, and IC50 values are reported as the average of three separate experiments along with standard error of the mean.

[2] = system: human skin fibroblast (HFF-1) cells; experiment: Cell viability IC50 in non-cancerous cells
Method: as §1

E. coli = experiment: Antibacterial activity (MIC); details: Escherichia coli; gram-negative (E. coli)
HT-29 cells = experiment: RNA sequencing of treated cells; details: 10 μM, 6 hr
Method: Total RNA was extracted by RNeasy Kit (QIAGEN) and digested with DNase (QIAGEN) from n=2 samples per condition (DMSO, 10 μM ferroptocide cells treated for 6 hr). RNA quality was assessed with a 2100 Agilent Bioanalyzer prior to library preparation. The RNAseq libraries were prepared using the TruSeq Stranded mRNAseq Sample Prep kit (version 1) following manufacturer's instruction (Illumina). Libraries were then quantified, pooled, and sequenced by single-end 150 base pairs using the Illumina HiSeq 4000 platform at the Roy J. Carver Biotechnology center. FASTQ files were generated and demultiplexed with the bcl2FASTQ v2.17.1.14 Conversion Software (Illumina). Libraries were sequenced at an average depth of 40-50 million reads per sample. Trimmomatic (v0.36) was utilized to remove sequencing adapters, low-quality bases (PHRED score <28), and reads less than 30 bases in length. Pseudo-alignment and transcript-level counting to NCBI's GRCh38.p11 transcriptome was then performed with Salmon (v 0.8.2) in quasi-mapping mode while correcting for sequence-specific and GC biases, and generating 30 bootstraps. Counts summarized to the gene level (NCBI annotation release 108) using tximport (v 1.6.0) and the “lengthScaledTPM” method. The counts were normalized using the TMM method from edgeR (v 3.20.5) and then transformed to log 2 counts per million (log CPM) with prior.count=3. Genes without at least log CPM>log 2(0.5) in at least 3 samples were filtered out, leaving 16,743 genes for differential expression testing. TMM normalization was re-done after filtering and then limma's (v 3.34.5) voom method was used to find differentially expressed genes for the pairwise comparisons of treatment vs. control in A549, and treatment vs. control in HT29 (batch 2 and 3, 8 samples total, 6 hr), and the interaction between treatment and cell line. P values were adjusted for multiple hypothesis testing with the Benjamini-Hochberg method to generate false discovery rates. Gene set enrichment analysis was done using ESGEA (v 1.6.1) for the Gene Ontology BP, CC and MF gene sets, KEGG pathway gene sets, and Pathway gene sets. The RNA sequencing data have been deposited to the GEO repository with the accession number GSE126868.

ES-2 cell line = experiment: 72 hr cell viability assay (Alamar Blue), dose response IC50; details: Homo sapiens; 72 hr, ES-2 cell line, Alamar Blue fluorescence, mean ± s.e.m., n ≥ 3
Method: 40 μL of media was added to each well of a 384-well tissue culture-treated plate. 3×100 nL of compound in DMSO was then pin-transferred from compound storage plates (2 mM stocks) into media-containing wells using the Platemate Plus at the UIUC High Throughput Screening Facility. A 100,000 cells/mL suspension of ES-2 cells was prepared, and 10 μL was added to each well for a final concentration of 1000 cells/well. Doxorubicin (100 μM final) was used as a positive control. Plates were sealed with gas-permeable seals and incubated at 37° C. for 72 h. After incubation, 5 μL of Alamar blue (440 μM resazurin in sterile PBS) was added and allowed to incubate for 3-4 h, until visible color change occurred. Fluorescence was measured in a Molecular Devices SpectraMax 3 (excitation=555 nm, emission=585 nm, emission cutoff=570 nm).
as §1

`C[C@@H]1CC[C@@]23C[C@H](O)C(=O)[C@@]2(O)[C@]1(C)[C@H](OC(=O)CCl)C[C@@H](C1=CCn2c(=O)n(-c4ccccc4)c(=O)n2C1)[C@@H]3C` [Compound P18, ferroptocide] gave an IC50 [1] of 3.1 µM, an IC50 [2] of 4.1 µM and an MIC (E. coli) greater than 64 µg/mL. For the same molecule, the “genes involved in ferroptosis modulated” value (HT-29 cells; FDR ≤0.05) was 35/40, the “ATF3 upregulation (RNA-seq)” value (HT-29 cells; HT-29) was 11.5 fold and the “CHAC1 upregulation (RNA-seq)” value (HT-29 cells; HT-29) was 9.8 fold. The “DDIT3 upregulation (RNA-seq)” value (HT-29 cells; HT-29) was 22.5 fold, the “DDIT4 upregulation (RNA-seq)” value (HT-29 cells; HT-29) was 11.3 fold and the “GCLC upregulation (RNA-seq)” value (HT-29 cells; HT-29) was 3.5 fold. For the same molecule, the “GCLM upregulation (RNA-seq)” value (HT-29 cells; HT-29) was 4.9 fold, the “SLC7A11 upregulation (RNA-seq)” value (HT-29 cells; HT-29) was 8.1 fold and the IC50 (ES-2 cell line) was 1.6 µM.
